Reference: patent US20040009189A1, “Antimutagenic effects of ganoderma lucidum spores” (priority 2002, published 2004)
Read-outs that look alike come from different tables or passages of the source. Marks after values point to notes of the source that are not given here.

Tests used:
[1] = test system: bone marrow cells of mice
Method: Male NIH mice weighing 22-25 g, provided by the Guangdong Provincial Animal Center for Medical Experiments, were used. […] Each group contained 5 mice. Dosages were administered once a day for 3 consecutive days, orally via gavage.
Distilled water was then added to adjust the suspension to the required concentration. The compound was orally administered through gavage at 0.4 ml/10 g of body weight. […] Twenty four (24) hours after the last administration the animals were sacrificed by dislocation of the cervical vertebra. The femur was then removed, the muscle stripped away, and the bone marrow flushed out using phosphate buffer, centrifuged, fixed hyponotically and the chromosome sample is prepared using methods routine in the art. It was then stained for 10 min using 10% Giemsa's stain (pH 6.8).
Well dispersed Metaphase cells were selected for observation under the oil immersion lens. One hundred (100) metaphase cells were observed per animal, the number of cells with chromosomal aberrations noted, and the chromosomal aberration rate calculated. The data obtained were analyzed statistically calculated using SPSS for Windows 8.0 (t-test).

[2] = test system: mice bone marrow cell chromosomal aberration induced by cyclophosphamide; settings: 500 cells
Text: The test used was the modified mice bone marrow cell micronucleus test as specified in “A Notice Concerning Issuance of the Revised Items of the ‘Health Food Functional Assessment Procedures and Testing Methods’,” a document from the Ministry of Public Health of the People's Republic of China, which is hereby incorporated by reference.
The mice were randomly divided by weight into 9 groups, 5 males and 5 females respectively per group. Animals in each group were given the following treatment:
The drug was prepared as a suspension of the required concentration in distilled water, and administered orally through tube at individual dosages of 0.2 mL/10 g of body weight. The negative control group was given distilled water of the equivalent volume through tube once a day for 30 days continuously. […] 4 hours before the mice were sacrificed they are given colchicine, and the bone marrow was extracted in order to prepare the chromosome samples in the routine way.
Samples from each group were observed. One hundred (100) metaphase cells per mouse were observed, and the chromosomal structures and the numbers of aberrations were recorded. Using SPSS for Windows 8.0 (t-test), a comparative analysis was made of the experimental data from the various dosage groups and the positive groups and tested to find out if there was any significant difference between the males and females within the group.

[3] = Weight gain of the pregnant rats (embryotoxicity/teratogenicity study); assay type: in vivo; settings: days 10-12 of pregnancy
Text: (§1) To test the embryotoxicity and teratogenic effects of GASP, a rat model was used.
(§2) Healthy SD rats weighing between 200-250 g were selected and housed together overnight at a 2:1 ratio of females to males. Beginning on the next day, vaginal smears were examined each morning, and the date when sperm was found was considered day 0 of pregnancy.
(§3) The pregnant rats were randomly divided into 5 groups, 18 rats per group. […] The human clinical dose was four capsules per dose (each capsule containing 0.3 g of the GSAP), four times daily. The study was designed so that the low dose group was 428.6 mg/kg, medium dose group was 2143 mg/kg, and the high dose group was 4286 mg/kg (equivalent to 1, 5, and 10 times the human clinical dose, respectively, when calculated according to the respective body surface areas of the rat and human). During the 6-15 days of the pregnancy, the GASP was orally administered to the rats in the dosage groups at a volume of 1.5 ml/100 g through gavage. The positive control group was given aspirin (250 mg/kg) on days 10-12 of the pregnancy, at the volume of 1.0 ml/100 g orally by means of a stomach tube, while the negative control group was given the equivalent amount of distilled water orally through gavage.
All the pregnant rats were weighed once every 3 days, so as to adjust the dosage. […]

fetal rats [4] = test: Effects on fetal rat organogenesis (Bouins fixation, sectioning); design: species or system Sprague Dawley (SD) rats; settings: female, Sprague-Dawley, in vivo
Text: Approximately ⅓ of the fetal rats were removed per litter, fixed with Bouins solution and then manually sectioned, with the various internal organs being then observed under the dissecting microscope.

fetal rats [5] = test: Effects on early embryo development in pregnant rats; assay type: in vivo; settings: aspirin 250 mg/kg oral, days 10-12 of pregnancy; 14 pregnant rats
Text: as §1, §2, §3
All the pregnant rats were weighed once every 3 days, so as to adjust the dosage. On the day 20 of the pregnancy, the animals were sacrificed by dislocating the vertebra, and a cesarean was performed to obtain the fetal rats in order to check various indexes and for statistical analysis.

[6] = positive control: cyclophosphamide 40 mg/kg oral, single administration, 500 cells counted
[7] = CP 40 mg/kg alone (positive group), F
[8] = CP 40 mg/kg alone (positive group), M
[9] = CP 50 mg/kg alone (positive group 4), F
[10] = CP 50 mg/kg alone (positive group 4), M

O=P1(N(CCCl)CCCl)NCCCO1 (stereo not shown) [CP, cyclophosphamide]
Chromosomal aberration rate vs negative control group ([1]; CP 40 mg/kg, p<0.01): noticeably higher than that of the negative control group
Chromosomal Aberration Rate (%) [1, 6]: 25.0* %
No. aberrant cells [1, 6]: 115
Type and Number of Aberration: I (chromosomal fragmentation) [1, 6]: 35
Type and Number of Aberration: b (chromosomal breakage) [1, 6]: b(48)
Type and Number of Aberration: f (chromosal fusion) [1, 6]: 59
Abberant Cell Count [2, 7]: 118
Abnormality Rate [2, 7]: 1.2
Cell Aberration Rate % [2, 7]: 23.6%
No. of Abnormalities Polyploid [2, 7]: 5
No. of Abnormalities hyperploid [2, 7]: 1
No. of Abormal Cells [2, 7]: 6
crb (chromatid break) [2, 7]: 95
csb (chromosome break) [2, 7]: 28
csg (chromosome gap) [2, 7]: 0
ctg (chromatid gap) [2, 7]: 16
del (nullisomic) [2, 7]: 50
dmin (dimicrobody) [2, 7]: 0
f (fragment) [2, 7]: 60
r (ring chromosome) [2, 7]: 0
tr (triradial) [2, 7]: 21
Abberant Cell Count [2, 8]: 108
Abnormality Rate [2, 8]: 1.8
Cell Aberration Rate % [2, 8]: 21.6%
No. of Abnormalities Polyploid [2, 8]: 6
No. of Abnormalities hyperploid [2, 8]: 1
No. of Abormal Cells [2, 8]: 9
crb (chromatid break) [2, 8]: 94
csb (chromosome break) [2, 8]: 19
csg (chromosome gap) [2, 8]: 0
ctg (chromatid gap) [2, 8]: 18
del (nullisomic) [2, 8]: 47
dmin (dimicrobody) [2, 8]: 0
f (fragment) [2, 8]: 62
r (ring chromosome) [2, 8]: 0
tr (triradial) [2, 8]: 15
Abberant Cell Count [2, 9]: 221
Abnormality Rate [2, 9]: 2.0
No. of Abnormalities Polyploid [2, 9]: 5
No. of Abnormalities hyperploid [2, 9]: 5
No. of Abormal Cells [2, 9]: 10
crb (chromatid break) [2, 9]: 185
csb (chromosome break) [2, 9]: 21
csg (chromosome gap) [2, 9]: 0
ctg (chromatid gap) [2, 9]: 18
del (nullisomic) [2, 9]: 103
dmin (dimicrobody) [2, 9]: 0
f (fragment) [2, 9]: 117
r (ring chromosome) [2, 9]: 0
tr (triradial) [2, 9]: 32
Abberant Cell Count [2, 10]: 198
Abnormality Rate [2, 10]: 2.2
No. of Abnormalities Polyploid [2, 10]: 9
No. of Abnormalities hyperploid [2, 10]: 2
No. of Abormal Cells [2, 10]: 11
crb (chromatid break) [2, 10]: 170
csb (chromosome break) [2, 10]: 33
csg (chromosome gap) [2, 10]: 0
ctg (chromatid gap) [2, 10]: 18
del (nullisomic) [2, 10]: 92
dmin (dimicrobody) [2, 10]: 0
f (fragment) [2, 10]: 100
r (ring chromosome) [2, 10]: 1
tr (triradial) [2, 10]: 29

CC(=O)Oc1ccccc1C(=O)O [Aspirin, aspirin]
Net Weight Gain ([3]; aspirin 250 mg/kg oral): 47.8 ± 13.9 g
Net weight gain vs negative control group ([3]; aspirin 250 mg/kg, p<0.05): significantly lower than that of the negative control group
Number of hydrocephalic fetal rats (fetal rats [4]): 2
Mean no. survivors per litter (fetal rats [5]): 4.0*
No. of litters with dead fetuses (fetal rats [5]): 5
No. surviving fetus (fetal rats [5]): 56
